Values quoted from earlier work, collected in patent US4463171A, “Derivatives of macrolide antibiotics” (Sanraku-Ocean Co., Ltd., priority 1982, dated 1984).

Tests used:
[1] = cited from earlier work
[2] = cited from earlier work; remark: listed apart in the source

Structure (SMILES): CC[C@H]1OC(=O)C[C@@H](O)[C@H](C)[C@@H](O[C@@H]2O[C@H](C)[C@@H](O[C@H]3C[C@@](C)(O)[C@@H](O)[C@H](C)O3)[C@H](N(C)C)[C@H]2O)[C@@H](CC=O)C[C@@H](C)C(=O)/C=C/C(C)=C/[C@@H]1CO[C@@H]1O[C@H](C)[C@@H](O)[C@@H](OC)[C@H]1OC [tylosin]
- antibacterial activity in vitro [1]: high antibacterial activity in vitro
- absorbability and excretability in vivo [2]: low
